US20160051560A1, “TREATMENTS INVOLVING ESLICARBAZEPINE OR ESLICARBAZEPINE ACETATE” (BIAL - PORTELA & Cª, S.A., priority 2013, published 2016)

Tested on: patients with bipolar I disorder who responded to treatment in the acute phase studies
Experiment: Study BIA-2093-205: recurrence prevention study (2-week open-label Part I, double-blind fixed dose Part II)
Format: in vivo, human
Conditions: for Patient worsening status according to CGI-BP Scale: No worsening / Patient worsening status according to CGI-BP Scale: Worsening: Part II; for Patient worsening status according to CGI-BP Scale: No worsening / Patient worsening status according to CGI-BP Scale: Worsening / median time to withdrawal / patients who withdrew / proportion of patients with MADRS scores ≧18 (depressive symptomatology) / proportion of patients with YMRS scores ≧15 (manic symptomatology) / mean (SD) highest mood scores (patient e-diary, 100-point visual analogue scale) / mean (SD) overall lowest mood scores (patient e-diary, 100-point visual analogue scale): ITT; for mean (SD) highest mood scores (patient e-diary, 100-point visual analogue scale) / mean (SD) overall lowest mood scores (patient e-diary, 100-point visual analogue scale) / patients who withdrew (AE section; withdrawing because of AEs): double-blind period
Procedure: Part I followed an open-label design in which all participants received treatment with ESL 900 mg QD for 2 weeks. Part II followed a double-blind, parallel-group, fixed multiple dose design in which participants were randomly assigned (1:1:1) to one of the following treatment groups: (1) ESL 1800 mg QD, (2) ESL 900 mg QD, and (3) ESL 300 mg QD. […] The occurrence of a new manic/depressive episode was considered a treatment failure, and the patient was discontinued from the study.
If the patient had—in change from preceding phase scale—a score of 5, 6, or 7 in any of 3 categories (mania, depression, or overall bipolar disorder), the illness was considered to have worsened. Secondary efficacy variables included: proportion of patients developing manic symptomatology (YMRS score ≧15); proportion of patients developing depressive symptomatology (MADRS score ≧18); the highest and lowest mood state, collected in the patient diary card; and time to withdrawal. All efficacy assessments were evaluated at each study visit.
Mood was self-evaluated in a 100-point visual analogue scale using the DiaryPRO™ software (Invivodata®, Inc.) implemented on a touch-screen device (Palm™ OS). Patients completed their training in the e-diary use in V1 and were assisted by the study staff when necessary. Data were collected and transferred from the patient's home to the study server on a daily basis.
Medical history and demographic information was obtained at the screening visit. A complete physical and neurological examination was performed at screening, V7 or early discontinuation (EDV), V8 and post-study visit (PSV). Vital signs (pulse rate and blood pressure) were determined at every visit. […] Clinically significant abnormalities in laboratory tests, vital signs or 12-lead ECG were considered as AEs.
Safety was evaluated based on the occurrence of AEs. AEs were documented by the investigator with reference to intensity, dates of occurrence and resolution, outcome and relation to the treatment (causality). Furthermore, each AE was classified as being serious or non-serious. All patients with AEs were followed until their resolution. AEs were coded according to the Medical Dictionary for Regulatory Activities (MedDRA).
Proportions of patients were compared between treatment groups using a Cochran-Mantel-Haenszel (CMH) test stratified by region. […] In all analyses, if the treatment effect was significant (p<0.05) pairwise comparisons were to be performed to assess the differences.
Changes in total YMRS, CGI-BP and MADRS scores were tested by analysis of covariance (ANCOVA) using baseline score value, region, treatment and region-by-treatment interaction as covariates; Dunnett's multiple comparison procedure was used for the comparison of the treatment means. ANCOVA was used to evaluate the change in YMRS score from baseline to the end of the 3-week treatment period, the CGI-BP score at the end of the 3-week treatment period, the MADRS score at the end of the 3-week treatment period, and the highest and lowest mood states (the mean highest and lowest score for each patient was calculated for intervals of 28 calendar days).
Survival analysis was performed using log-rank test/Kaplan-Meier and Cox proportional hazards model.

[1] = Part II Double-Blind Period, ESL 300 mg, n = 35
[2] = Part II Double-Blind Period, ESL 900 mg, n = 26
[3] = Part II Double-Blind Period, ESL 1800 mg, n = 26

CC(=O)O[C@H]1Cc2ccccc2N(C(N)=O)c2ccccc21 [ESL, (S)-10-acetoxy-10,11-dihydro-5H-dibenz[b,f]azepine-5-carboxamide]
Patient worsening status according to CGI-BP Scale: No worsening (ESL 300 mg QD, n = 34): 26 (76.5) n (%) | Patient worsening status according to CGI-BP Scale: Worsening (ESL 300 mg QD, n = 34): 6 (17.6) n (%) | serious AE: mania (ESL 300 mg group): 2 cases | proportion of patients who prematurely discontinued (ESL 300 mg group (n=19)): 54.3% | median time to withdrawal (ESL 300 mg group): 254 days | patients who withdrew (ESL 300 mg group): 52.9% | proportion of patients with MADRS scores ≧18 (depressive symptomatology) (ESL 300 mg): 14.7% | proportion of patients with YMRS scores ≧15 (manic symptomatology) (ESL 300 mg): 8.8% | mean (SD) highest mood scores (patient e-diary, 100-point visual analogue scale) (ESL 300 mg): 49.2 (11.0) | mean (SD) overall lowest mood scores (patient e-diary, 100-point visual analogue scale) (ESL 300 mg): 45.9 (10.4) | Patient worsening status according to CGI-BP Scale: No worsening (ESL 900 mg QD, n = 25): 14 (56.0) n (%) | Patient worsening status according to CGI-BP Scale: Worsening (ESL 900 mg QD, n = 25): 10 (40.0) n (%) | serious AE: anaemia (ESL 900 mg group): 1 case | serious AE: disease progression (ESL 900 mg group): 1 case | serious AE: oesophageal stenosis (ESL 900 mg group): 1 case | serious AE: pneumonia (ESL 900 mg group): 1 case | proportion of patients who prematurely discontinued (ESL 900 mg group (n=14)): 53.8% | median time to withdrawal (ESL 900 mg group): 295 days | patients who withdrew (ESL 900 mg group): 52.0% | proportion of patients with MADRS scores ≧18 (depressive symptomatology) (ESL 900 mg): 0.0% | proportion of patients with YMRS scores ≧15 (manic symptomatology) (ESL 900 mg): 16.0% | mean (SD) highest mood scores (patient e-diary, 100-point visual analogue scale) (ESL 900 mg): 50.6 (6.4) | mean (SD) overall lowest mood scores (patient e-diary, 100-point visual analogue scale) (ESL 900 mg): 47.3 (12.4) | Patient worsening status according to CGI-BP Scale: No worsening (ESL 1800 mg QD, n = 26): 16 (61.5) n (%) | Patient worsening status according to CGI-BP Scale: Worsening (ESL 1800 mg QD, n = 26): 6 (23.1) n (%) | serious AE: bronchitis (ESL 1800 mg group): 1 case | serious AE: depression (ESL 1800 mg group): 1 case | serious AE: disease progression (ESL 1800 mg group): 1 case | proportion of patients who prematurely discontinued (ESL 1800 mg group (n=19)): 73.1% | median time to withdrawal (ESL 1800 mg group): 109 days | patients who withdrew (ESL 1800 mg group): 73.1% | proportion of patients with MADRS scores ≧18 (depressive symptomatology) (ESL 1800 mg): 11.5% | proportion of patients with YMRS scores ≧15 (manic symptomatology) (ESL 1800 mg): 19.2% | mean (SD) highest mood scores (patient e-diary, 100-point visual analogue scale) (ESL 1800 mg): 55.1 (10.4) | mean (SD) overall lowest mood scores (patient e-diary, 100-point visual analogue scale) (ESL 1800 mg): 51.1 (12.3) | patients who showed no worsening according to the CGI-BP scale (ITT population, all treatment groups (300, 900, 1800 mg), no significant dose difference (p=0.250)): at least 50% | Any Adverse Events (Part I Open-Label Period, ESL 900 mg, n = 104): 20 (19.2) Number (%) of patients | Agitation [1]: 2 (5.7) Number (%) of patients | Any Adverse Events [1]: 14 (40.0) Number (%) of patients | Aspartate amino-transferase increased [1]: 0 (0.0) Number (%) of patients | Blood creatine phosphokinase increased [1]: 1 (2.9) Number (%) of patients | Bronchitis [1]: 0 (0.0) Number (%) of patients | Depression [1]: 3 (8.6) Number (%) of patients | Dizziness [1]: 0 (0.0) Number (%) of patients | Mania [1]: 2 (5.7) Number (%) of patients | Nausea [1]: 0 (0.0) Number (%) of patients | Sinus tachycardia [1]: 2 (5.7) Number (%) of patients | Agitation [2]: 0 (0.0) Number (%) of patients | Any Adverse Events [2]: 14 (53.8) Number (%) of patients | Aspartate amino-transferase increased [2]: 0 (0.0) Number (%) of patients | Blood creatine phosphokinase increased [2]: 0 (0.0) Number (%) of patients | Bronchitis [2]: 1 (3.8) Number (%) of patients | Depression [2]: 3 (11.5) Number (%) of patients | Dizziness [2]: 0 (0.0) Number (%) of patients | Mania [2]: 0 (0.0) Number (%) of patients | Nausea [2]: 0 (0.0) Number (%) of patients | Sinus tachycardia [2]: 1 (3.8) Number (%) of patients | Agitation [3]: 1 (3.8) Number (%) of patients | Any Adverse Events [3]: 18 (69.2) Number (%) of patients | Aspartate amino-transferase increased [3]: 2 (7.7) Number (%) of patients | Blood creatine phosphokinase increased [3]: 3 (11.5) Number (%) of patients | Bronchitis [3]: 2 (7.7) Number (%) of patients | Depression [3]: 1 (3.8) Number (%) of patients | Dizziness [3]: 3 (11.5) Number (%) of patients | Mania [3]: 0 (0.0) Number (%) of patients | Nausea [3]: 3 (11.5) Number (%) of patients | Sinus tachycardia [3]: 0 (0.0) Number (%) of patients | deaths (all treatment groups): No deaths occurred | patients who withdrew (AE section; withdrawing because of AEs) (ESL 300 mg group (n=3)): 8.6% | patients who withdrew (AE section; withdrawing because of AEs) (ESL 900 mg group (n=3)): 11.5% | patients who withdrew (AE section; withdrawing because of AEs) (ESL 1800 mg group (n=1)): 3.8% | patients with AEs (open-label period, ESL 900 mg QD (20 patients)): 19.2% | number of AEs reported (open-label period, ESL 900 mg QD, in 20 patients): 42 AEs | premature discontinuation because of treatment failure (overall (n=22), similar proportions between treatment groups): 21.2% | patients completed 6 months of treatment (overall, of 104 patients enrolled in Part I (n=35)): 33.7% | incidence of treatment-related AEs (recurrence prevention study, comparable between treatment groups): < 25 % of patient
